Data: ChEMBL document CHEMBL1143466, “Conformationally constrained N1-arylsulfonyltryptamine derivatives as 5-HT6 receptor antagonists” (Bioorg Med Chem Lett, 2005)

Assays:
[1] = molecular target: T1, 5-hydroxytryptamine receptor 6 (Homo sapiens, UniProt P50406); test: Displacement of [3H]LSD from cloned human 5-hydroxytryptamine 6 receptor expressed in HeLa cells; format: cell-based
[2] = molecular target: T1, 5-hydroxytryptamine receptor 6; test: Maximum inhibition of cAMP production in HeLa cells expressing human 5-HT6 receptors; format: functional, cell-based
[3] = molecular target: T1, 5-hydroxytryptamine receptor 6; test: Inhibition of cAMP production in HeLa cells expressing human 5-HT6 receptor; format: functional, cell-based
[4] = molecular target: T1, 5-hydroxytryptamine receptor 6; test: Effective concentration for cAMP production in HeLa cells expressing human 5-HT6 receptors; format: functional, cell-based
[5] = molecular target: T1, 5-hydroxytryptamine receptor 6; test: Maximum effective concentration for cAMP production in HeLa cells expressing human 5-HT6 receptors; format: functional, cell-based

T1 sequence (P50406 whole entry): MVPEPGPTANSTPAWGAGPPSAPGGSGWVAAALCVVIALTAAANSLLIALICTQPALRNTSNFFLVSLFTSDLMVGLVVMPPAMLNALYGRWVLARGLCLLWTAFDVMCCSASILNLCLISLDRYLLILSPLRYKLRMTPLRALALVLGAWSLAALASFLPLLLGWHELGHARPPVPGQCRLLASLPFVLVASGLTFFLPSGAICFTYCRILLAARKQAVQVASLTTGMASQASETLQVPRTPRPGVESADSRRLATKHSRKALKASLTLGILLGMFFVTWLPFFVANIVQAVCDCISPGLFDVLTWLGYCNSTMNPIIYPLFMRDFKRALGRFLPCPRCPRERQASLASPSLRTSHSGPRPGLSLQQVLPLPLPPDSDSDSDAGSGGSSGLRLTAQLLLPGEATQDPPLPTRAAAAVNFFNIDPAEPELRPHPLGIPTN

SMILES	Ki [1]	Imax [2]	IC50 [3]	EC50 [4]	Emax [5]
Nc1ccc(S(=O)(=O)n2c3c(c4ccccc42)CCNC3)cc1	116 nM				
CN1CCC[C@H]1Cc1cn(S(=O)(=O)c2ccc(Cl)c(Cl)c2)c2ccccc12	12 nM	86.5%	7.3 nM		
Cc1nc(N)sc1S(=O)(=O)n1cc(C2CCN(Cc3ccccc3)C2)c2ccccc21 (stereo not given)		97%	110 nM		
COc1ccc(S(=O)(=O)n2cc(C[C@@H]3CCCN3C)c3ccccc32)cc1	19.3 nM				
O=S(=O)(c1ccccc1F)n1cc(C2=CCCNC2)c2ccccc21	9.2 nM			51 nM	52%
O=S(=O)(c1ccc(F)cc1F)n1cc(C2=CCCNC2)c2ccccc21	13 nM				
O=S(=O)(c1cccc(Cl)c1)n1cc(C[C@@H]2CCCN2)c2ccccc21	22 nM				
Cc1nn(C)c(Cl)c1S(=O)(=O)n1cc(C2=CCCNC2)c2ccccc21	8 nM			89.5 nM	50%
O=S(=O)(c1ccccc1Br)n1cc(C2CCN(Cc3ccccc3)C2)c2ccccc21 (stereo not given)		62%	21 nM		
CN1CCC(c2cn(S(=O)(=O)c3ccccc3Br)c3ccccc23)C1 (stereo not given)		98.5%	53.3 nM		
CN1CCC[C@H]1Cc1cn(S(=O)(=O)c2ccc(I)cc2)c2ccccc12	3 nM	99.5%	49.5 nM		
Nc1ccc(S(=O)(=O)n2cc(C[C@@H]3CCCN3)c3ccccc32)cc1	7 nM	72.9%	7.6 nM		
CN1CCC(c2cn(S(=O)(=O)c3ccc(N)cc3)c3ccccc23)C1 (stereo not given)		89.5%	15.5 nM		
O=S(=O)(c1ccc(F)cc1)n1cc(C2=CCCNC2)c2ccccc21	10.5 nM			345 nM	62%
Cc1ccc(S(=O)(=O)n2cc(C3CCN(Cc4ccccc4)C3)c3ccccc32)cc1 (stereo not given)		72%	123 nM		
CN1CCC[C@H]1Cc1cn(S(=O)(=O)c2cccc(Cl)c2)c2ccccc12	4 nM	77%	96.2 nM		
O=S(=O)(c1ccccc1)n1cc(C2CCCNC2)c2ccccc21 (stereo in doubt) [listing 1 of 2 here]	1 nM			36 nM	
O=S(=O)(c1ccc(Br)s1)n1cc(C2CCN(Cc3ccccc3)C2)c2ccccc21 (stereo not given)		69%	110 nM		
O=S(=O)(c1ccc(F)c(F)c1)n1cc(C2=CCCNC2)c2ccccc21	26 nM				
CN1CCC[C@H]1Cc1cn(S(=O)(=O)c2ccc(Br)s2)c2ccccc12	3 nM	96%	112 nM		
O=S(=O)(c1ccccc1)n1cc(C2CCCNC2)c2ccccc21 (racemic) [listing 1 of 2 here]					100%
Nc1ccc(S(=O)(=O)n2cc(C3CCN(Cc4ccccc4)C3)c3ccccc32)cc1 (stereo not given)		97%	25 nM		
CN1CCC[C@H]1Cc1cn(S(=O)(=O)c2ccc(N)cc2)c2ccccc12	3 nM	100%	24.5 nM		
CN1CCC[C@H]1Cc1cn(S(=O)(=O)c2ccccc2)c2ccccc12	5 nM	87%	81.4 nM		
COc1ccc(S(=O)(=O)n2cc(C[C@@H]3CCCN3C)c3ccccc32)cc1OC	8 nM	100%	0.8 nM		

SMILES	Ki [1]	Imax [2]	IC50 [3]	EC50 [4]	Emax [5]
COc1ccc(S(=O)(=O)n2cc(C3=CCCNC3)c3ccccc32)cc1	16 nM				
CN1CCC[C@H]1Cc1cn(S(=O)(=O)c2ccc(Cl)s2)c2ccccc12	4 nM	99%	1 nM		
O=S(=O)(c1ccc(Cl)c(Cl)c1)n1cc(C2CCN(Cc3ccccc3)C2)c2ccccc21 (stereo not given)		63%	61 nM		
Cc1nc(C)c(S(=O)(=O)n2cc(C3=CCCNC3)c3ccccc32)o1	58 nM				
CN1CCC[C@@H]1Cc1cn(S(=O)(=O)c2ccccc2)c2ccccc12	8 nM	75%	0.6 nM		
Cc1c(S(=O)(=O)n2cc(C[C@H]3CCCN3)c3ccccc32)sc2ccc(Cl)cc12	284 nM				
CN1CCC[C@@H]1Cc1cn(S(=O)(=O)c2ccc(Br)s2)c2ccccc12	4 nM			103 nM	76.5%
O=S(=O)(c1ccccc1Cl)n1cc(C2=CCCNC2)c2ccccc21	13 nM				
CN1CCC[C@H]1Cc1cn(S(=O)(=O)c2ccccc2Br)c2ccccc12	7 nM	87.5%	76.5 nM		
O=S(=O)(c1ccccc1C(F)(F)F)n1cc(C2=CCCNC2)c2ccccc21	21.7 nM				
CN1CCC(c2cn(S(=O)(=O)c3ccc(F)cc3)c3ccccc23)C1 (stereo not given)		83.5%	52.5 nM		
COc1ccc(S(=O)(=O)n2cc(C[C@@H]3CCCN3)c3ccccc32)cc1OC	23 nM				
O=S(=O)(c1ccccc1)n1cc(C2CCCNC2)c2ccccc21 (stereo in doubt) [listing 2 of 2 here]					100%
COc1ccc(S(=O)(=O)n2cc(C3CCN(C)C3)c3ccccc32)cc1OC (stereo not given)		100%	96.7 nM		
CN1CCC(c2cn(S(=O)(=O)c3ccc(I)cc3)c3ccccc23)C1 (stereo not given)		93.5%	43.6 nM		
O=S(=O)(c1ccccc1)n1cc(C2CCCNC2)c2ccccc21 (single isomer, unassigned; enantiomer 1) [listing 1 of 2 here]	3 nM				
O=S(=O)(c1cccc(C(F)(F)F)c1)n1cc(C2=CCCNC2)c2ccccc21	44.7 nM				
O=S(=O)(c1ccc(Cl)c(Cl)c1)n1cc(C[C@@H]2CCCN2)c2ccccc21	49 nM				
O=S(=O)(c1ccc(I)cc1)n1cc(C[C@@H]2CCCN2)c2ccccc21	34 nM				
O=S(=O)(c1ccc(Cl)cc1)n1cc(C2=CCCNC2)c2ccccc21	22 nM				
Cc1ccc(S(=O)(=O)n2cc(C[C@@H]3CCCN3C)c3ccccc32)cc1	5 nM	78.5%	56.3 nM		
O=S(=O)(c1ccccc1)n1cc(C2CCCNC2)c2ccccc21 (single isomer, unassigned; enantiomer 1) [listing 2 of 2 here]					0%
CN1CCC[C@H]1Cc1cn(S(=O)(=O)c2ccc(Cl)cc2)c2ccccc12	7 nM	86%	8.2 nM		
O=S(=O)(c1ccc(Cl)cc1)n1cc(C[C@@H]2CCCN2)c2ccccc21	49 nM				
CN1CCC(c2cn(S(=O)(=O)c3ccc(Cl)cc3)c3ccccc23)C1 (stereo not given)		86.5%	85.5 nM		

SMILES	Ki [1]	Imax [2]	IC50 [3]	EC50 [4]	Emax [5]
O=S(=O)(c1ccccc1)n1c2c(c3ccccc31)CCNC2	253 nM				
O=S(=O)(c1ccc(Cl)c(Cl)c1)n1cc(C2=CCCNC2)c2ccccc21	48 nM				
O=S(=O)(c1cccc(Cl)c1)n1cc(C2=CCCNC2)c2ccccc21	14 nM				
O=S(=O)(c1ccc(Cl)s1)n1cc(C2=CCCNC2)c2ccccc21	22.7 nM				
O=S(=O)(c1cccc(Cl)c1)n1c2c(c3ccccc31)CCNC2	41.7 nM				
CN1CCC(c2cn(S(=O)(=O)c3ccc(Cl)c(Cl)c3)c3ccccc23)C1 (stereo not given)		100%	107 nM		
O=S(=O)(c1ccccc1)n1cc(C2CCCNC2)c2ccccc21 (racemic) [listing 2 of 2 here]				24 nM	
O=S(=O)(c1ccccc1)n1cc(C2=CCCNC2)c2ccccc21	4.6 nM			159 nM	41%
COc1ccc(S(=O)(=O)n2cc(C[C@@H]3CCCN3)c3ccccc32)cc1	40 nM				
COc1ccc(S(=O)(=O)n2cc(C3CCCNC3)c3ccccc32)cc1 (stereo not given)		65.5%	7.3 nM		
O=S(=O)(c1ccccc1)n1cc(C[C@@H]2CCCN2)c2ccccc21	27.7 nM				
Cc1ccc(S(=O)(=O)n2cc(C[C@@H]3CCCN3)c3ccccc32)cc1	33 nM				
O=S(=O)(c1ccccc1Br)n1cc(C[C@@H]2CCCN2)c2ccccc21	43 nM				
Cc1c(S(=O)(=O)n2cc(C[C@@H]3CCCN3C)c3ccccc32)sc2ccc(Cl)cc12	11 nM	87.5%	11 nM		
O=S(=O)(c1cccc(F)c1)n1cc(C2=CCCNC2)c2ccccc21	8.5 nM			270 nM	51.5%
O=S(=O)(c1ccc(Cl)s1)n1cc(C[C@@H]2CCCN2)c2ccccc21	25 nM				
O=S(=O)(c1cccc(Cl)c1Cl)n1cc(C2=CCCNC2)c2ccccc21	20 nM				
Cc1ccc(S(=O)(=O)n2c3c(c4ccccc42)CCNC3)cc1	271 nM				
O=S(=O)(c1ccc(Cl)s1)n1cc(C2CCCNC2)c2ccccc21 (stereo not given)				58.5 nM	93%
Cc1c(S(=O)(=O)n2cc(C3CCCNC3)c3ccccc32)sc2ccc(Cl)cc12 (stereo not given)	44 nM				
O=S(=O)(c1ccc(Br)s1)n1cc(C[C@@H]2CCCN2)c2ccccc21	20 nM				
O=S(=O)(c1cccs1)n1cc(C2CCCNC2)c2ccccc21 (stereo not given)	9.8 nM				
O=S(=O)(c1ccc(F)c(F)c1)n1cc(C2CCCNC2)c2ccccc21 (stereo not given)				66 nM	60.5%
